# From patent US9738656B2, “Pyranodipyridine compound” (Eisai R&D Management Co., Ltd., priority 2015, dated 2017)
# Like-named read-outs stand apart in the source and are kept apart here.
# Tests used:
# [1] = system: male ddY mice; experiment: Murine 6 Hz convulsion models (6 Hz, 44 mA corneal stimulation); assay type: in vivo; conditions: for ED50: Mus musculus, 25 min; for Therapeutic Index: TD50/ED50 (rotarod test-1 / 6 Hz convulsion model)
# Protocol: (§1) With regard to the AMPA receptor inhibitory action of the compounds, AMPA-induced intraneuronal calcium entry-suppressing action was examined using a primary culture system of embryonic rat cerebral cortex neurons. […] AMPA inhibitor-induced central nervous system depressant action such as loss of coordination was evaluated using a rotarod performance test.
# Immediately after the rotarod performance test-1 was completed, the cornea was stimulated by passing an electrical current (6 Hz, 44 mA, 0.2-millisecond pulse, for 3 seconds) from a copper electrode moistened with physiological saline, and the presence or absence of the development of a seizure was observed. The seizure was determined by the development of akinesia, jaw and forelimb clonus, whisker tremors, and Straub tail.
# Further, for the purpose of evaluating the safety margin of each of the compounds of the present invention, the therapeutic index (TD50/ED50) was calculated by comparing the seizure inhibitory action (ED50) in the 6 Hz convulsion models and the neurotoxic action (TD50) in the rotarod performance test-1.
# [2] = system: male ddY mice; experiment: Rotarod performance test-2; assay type: in vivo; conditions: for Time of Fall: mice, oral at the ED50 dose of the 6 Hz model, 25 minutes after administration; for Ratio Relative to the Control Compound: time of fall relative to control compound
# Protocol: Rotarod Performance Test-2
# (§2) A rotarod (MK-660C from Muromachi Kikai Co., Ltd.) was used for the measurement. The rod (bar) was controlled to be gradually accelerated from its stationary state to a speed of 40 rotations/minute after 180 seconds. As the animals, 5 or 6-week-old male ddY mice (Japan SLC, Inc.) were used. On the day on which the test was performed, the mice were trained under the above-described measurement conditions, and mice that were able to ride on the rod for 1 minute or longer with good reproducibility were selected and subjected to the test.
# As the control, only the medium was orally administered. After a lapse of 25 minutes from the oral administration of each compound, the mice were subjected to the rotarod performance test. Five or six mice were used for each compound group. For each compound, the time until the mice fell from the rotarod was measured.
# [3] = system: AMPA receptor; experiment: AMPA-induced intraneuronal calcium entry-suppressing action (primary culture of embryonic rat cerebral cortex neurons, Fura 2-AM); assay type: cell-based; conditions: AMPA stimulation, intracellular calcium increase, read-out: IC50 for AMPA inhibition
# Description: The present inventors conducted the following tests, in order to confirm the effects of the compounds of the present invention. With regard to the AMPA receptor inhibitory action of the compounds, AMPA-induced intraneuronal calcium entry-suppressing action was examined using a primary culture system of embryonic rat cerebral cortex neurons. With regard to the anticonvulsant action of the compounds, 6 Hz (44 mA) stimulation-induced convulsions known as a treatment-resistant convulsion model were used. AMPA inhibitor-induced central nervous system depressant action such as loss of coordination was evaluated using a rotarod performance test.
# AMPA-Induced Intraneuronal Calcium Entry-Suppressing Action
# <Culture conditions> Whole fetuses were removed from the uteri of Wistar rats at embryonic day 18 (Charles River Japan) anesthetized with isoflurane. Whole brains were removed from the whole fetuses, and the cerebral cortex was separated in Leibovitz's L-15 medium or Hanks balanced salt solution containing 20% fetal bovine serum. The resulting material was treated with trypsin/DNase solution at 37° C. for 45 to 60 minutes. After the serum was added to stop the trypsin reaction, the resulting material was centrifuged at 1200 to 1500 rpm for 3 to 5 minutes. After the supernatant was removed, Neurobasal medium (containing 2% B-27 supplement and the like; hereinafter “Neurobasal medium”) was added, and the cells were uniformly dispersed by gently pipetting. The cell suspension was slightly stirred, and then filtered through a nylon mesh filter. Viable cells were counted using a hemocytometer, and diluted with Neurobasal medium to 8 to 10×10^5 cells/mL. The cells were seeded into 96 well plates at 100 μL per well and cultured in a CO2 incubator (5% CO2, 37° C.). The medium was replaced after 24 hours, and neurons cultured for 7 to 21 days were used.
# On the day of the assay, the medium was removed and replaced with a calcium measurement solution containing 5 to 10 μmol/L of Fura 2-AM (140 mmol/L sodium chloride, 5 mmol/L potassium chloride, 2 mmol/L magnesium chloride, 3 mmol/L calcium chloride, 24 mmol/L D(+)-glucose, 10 mmol/L HEPES, 1 μmol/L MK-801, pH 7.4), and the cells were treated in a CO2 incubator (5% CO2, 37° C.) for 1 to 2 hours. The calcium measurement solution containing the Fura-2 AM solution was subsequently removed, and the neurons in each well were washed twice with the calcium measurement solution for each well, and then 50 μL of the calcium measurement solution was added to each well. Subsequently, 50 μL of a test compound or medium prepared at a concentration 3-fold higher than the final concentration was added, and the cells were pre-treated for about 15 minutes. The plates were subsequently placed on the Fluorescence Drug Screening System 6000 (Hamamatsu Photonics K.K.). The cells were stimulated by adding to each well 50 μL of an AMPA stimulating solution prepared to 3.3 μmol/L with the calcium measurement solution. Changes in calcium concentration were measured as the changes in fluorescence intensity at excitation wavelengths of 340 nm and 380 nm (measurement wavelength: 540 nm). The rate of change of the intracellular calcium concentration was calculated according to the following equation: Rate of increase of the intracellular calcium concentration (% control)=(Tpost−Tpre)/(Cpost−Cpre)×100
# wherein Tpost: the proportion of fluorescence of sample wells after stimulation; Tpro: the proportion of fluorescence of sample wells before stimulation; Cpost: the proportion of fluorescence of control wells after stimulation; and Cpre: the proportion of fluorescence of control wells before stimulation.
# The IC50 value of the test compound for AMPA inhibition was determined from the rates of increase of the intracellular calcium concentration at various concentrations.
# [4] = system: male ddY mice; experiment: Rotarod performance test-1; assay type: in vivo; conditions: oral, 25 minutes after administration, dose at which time of fall is reduced to 50% of medium control
# Protocol: as §1
# Rotarod Performance Test-1
# as §2
# Each of the compounds was dissolved in a medium (a solution prepared by adding DMSO to a 0.5% methylcellulose solution to a final concentration of 10%. As required, 0.5 to 5% of 1 mol/L hydrochloric acid and 5% Cremophor™ were added), and then orally administered to the mice in optimum four doses between 0.5 to 10 mg/kg. As the control, only the medium was orally administered. After a lapse of 25 minutes from the oral administration of each compound, the mice were subjected to the rotarod performance test. Five to twenty-five mice were used for each compound group.
# [5] = mice, 6 Hz 44 mA stimulation-induced seizure, oral, after rotarod test-1 (25 minutes after administration), read-out: ED50
SMILES,ED50 ([1]; po) [mg/kg],Therapeutic Index ([1]; mice),Time of Fall ([2]; Table 4) [s],Ratio Relative to the Control Compound ([2]; Table 4),IC50 [3] [nM],TD50 [4],Time of Fall ([2]; Table 3) [s],Ratio Relative to the Control Compound ([2]; Table 3),"ED50 [1, 5] [mg/kg]"
"N#Cc1c(F)cccc1-c1cc2c(n(-c3cncc(F)c3)c1=O)COc1cccnc1-2 [Example 15, 2-fluoro-6-(7-(5-fluoropyridin-3-yl)-8-oxo-7,8-dihydro-6H-pyrano[3,2-b:5,4-b′]dipyridin-9-yl)benzonitrile]",1.41,1.89,100.0,7.0,8.2,"2.67 mg/kg, p.o.",–,–,–
"COc1cncc(-n2c3c(cc(-c4cccc(F)c4C#N)c2=O)-c2ncccc2OC3)c1 [Example 2, 2-fluoro-6-(7-(5-methoxypyridin-3-yl)-8-oxo-7,8-dihydro-6H-pyrano[3,2-b:5,4-b′]dipyridin-9-yl)benzonitrile]",1.91,2.36,–,–,16,"4.50 mg/kg, p.o.",148.0,12.1,–
"N#Cc1ncccc1-c1cc2c(n(-c3ccsc3)c1=O)COc1cccnc1-2 [Example 7, 3-(8-oxo-7-(thiophen-3-yl)-7,8-dihydro-6H-pyrano[3,2-b:5,4-b′]dipyridin-9-yl)picolinonitrile]",0.97,1.75,–,–,15.5,"1.70 mg/kg, p.o.",71.7,5.9,–
"N#Cc1c(F)cccc1-c1cc2c(n(-c3cncnc3)c1=O)COc1cccnc1-2 [Example 18, 2-fluoro-6-(8-oxo-7-(pyrimidin-5-yl)-7,8-dihydro-6H-pyrano[3,2-b:5,4-b′]dipyridin-9-yl)benzonitrile]",2,2.02,102.2,7.1,29,"4.03 mg/kg, p.o.",–,–,–
"N#Cc1ncccc1-c1cc2c(n(-c3ccccc3F)c1=O)COc1cccnc1-2 [Example 12, 3-(7-(2-fluorophenyl)-8-oxo-7,8-dihydro-6H-pyrano[3,2-b:5,4-b′]dipyridin-9-yl)picolinonitrile]",1.66,1.84,–,–,33,"3.06 mg/kg, p.o.",80.5,6.6,–
"N#Cc1c(F)ccc(F)c1-c1cc2c(n(-c3cccnc3)c1=O)COc1cccnc1-2 [Example 19, 3,6-difluoro-2-(8-oxo-7-(pyridin-3-yl)-7,8-dihydro-6H-pyrano[3,2-b:5,4-b′]dipyridin-9-yl)benzonitrile]",2,1.63,121.7,8.5,23.4,"3.25 mg/kg, p.o.",–,–,–
"Cc1c(F)cccc1-c1cc2c(n(-c3cccnc3)c1=O)COc1cccnc1-2 [Example 22, 9-(3-fluoro-2-methylphenyl)-7-(pyridin-3-yl)-6H-pyrano[3,2-b:5,4-b′]dipyridin-8(7H)-one]",–,1.91,102.8,7.2,53.3,"6.19 mg/kg, p.o.",–,–,3.23
"O=c1c(-c2c(F)cccc2F)cc2c(n1-c1cccnc1)COc1cccnc1-2 [Referential Example 1, 9-(2,6-difluorophenyl)-7-(pyridin-3-yl)-6H-pyrano[3,2-b:5,4-b′]dipyridin-8(7H)-one]",–,3.66,–,–,44.1,"5.16 mg/kg, p.o.",110.7,9.1,1.41
"N#Cc1c(F)cccc1-c1cc2c(n(-c3cccnc3)c1=O)COc1cc(F)cnc1-2 [Example 14, 2-fluoro-6-(3-fluoro-8-oxo-7-(pyridin-3-yl)-7,8-dihydro-6H-pyrano[3,2-b:5,4-b′]dipyridin-9-yl)benzonitrile]",2.09,2.27,139.2,9.7,19.4,"4.76 mg/kg, p.o.",–,–,–
"COc1ncc(-n2c3c(cc(-c4cccc(F)c4C#N)c2=O)-c2ncccc2OC3)cn1 [Example 5, 2-fluoro-6-(7-(2-methoxypyrimidin-5-yl)-8-oxo-7,8-dihydro-6H-pyrano[3,2-b:5,4-b′]dipyridin-9-yl)benzonitrile]",–,2.02,108.7,7.6,31.8,"6.53 mg/kg, p.o.",–,–,3.23
"N#Cc1nccnc1-c1cc2c(n(-c3ccsc3)c1=O)COc1cccnc1-2 [Example 8, 3-(8-oxo-7-(thiophen-3-yl)-7,8-dihydro-6H-pyrano[3,2-b:5,4-b′]dipyridin-9-yl)pyrazine-2-carbonitrile]",–,>1.65,–,–,70.1,">8 mg/kg, p.o.",65.8,5.4,4.85
"N#Cc1ncccc1-c1cc2c(n(-c3ccccc3)c1=O)COc1cc(F)cnc1-2 [Example 13, 3-(3-fluoro-8-oxo-7-phenyl-7,8-dihydro-6H-pyrano[3,2-b:5,4-b′]dipyridin-9-yl)picolinonitrile]",2.25,1.73,–,–,67.5,"3.89 mg/kg, p.o.",84.8,7.0,–
"Cc1ccc(-n2c3c(cc(-c4cccc(F)c4Cl)c2=O)-c2ncccc2OC3)cn1 [Example 4, 9-(2-chloro-3-fluorophenyl)-7-(6-methylpyridin-3-yl)-6H-pyrano[3,2-b:5,4-b′]dipyridin-8(7H)-one]",2.33,1.67,–,–,28.3,"3.90 mg/kg, p.o.",73.2,6.0,–
